Experimental data as given in patent US20140121216A1, “INDOLEAMINE DERIVATIVES FOR THE TREATMENT OF CENTRAL NERVOUS SYSTEM DISEASES” (Adamed Sp. z o.o., priority 2011, published 2014).

Columns and labels:
[1] = system: α1 adrenergic receptors (rat cerebral cortex); experiment: Binding assay, α1 adrenergic receptor ([3H]prazosin); settings: compound 1×10^−6 M
Method: (§1) The specific ligand binding to the receptors is defined as the difference between the total binding and the non-specific binding determined in the presence of an excess of unlabelled ligand.
(§2) The inhibition constants (Ki) were calculated using the Cheng Prusoff equation (Ki=IC50/(1+(L/KD)), where L=concentration of radioligand in the assay, and KD=affinity of the radioligand for the receptor). A Scatchard plot is used to determine the Kd. The IC50 values (concentration causing a half-maximal inhibition of control specific binding) and Hill coefficients (nH) were determined by non-linear regression analysis of the competition curves generated with mean replicate values using Hill equation curve fitting (Y=D+[(A−D)/(1+(C/C50)^nH)], where Y=specific binding, D=minimum specific binding, A=maximum specific binding, C=compound concentration, C50=IC50, and nH=slope factor). This analysis was performed using a software developed at Cerep (Hill software) and validated by comparison with data generated by the commercial software SigmaPlot® 4.0 for Windows® (©1997 by SPSS Inc.).
Experimental conditions for tests are given in Table 7, and results of tests for representative compounds are given in Tables 8a and 8b (α1 receptors) and in Tables 9a and 9b (α2C receptors).

[2] = biological target: T1, D2S (h), human recombinant (HEK-293 cells) (Homo sapiens, UniProt P14416); experiment: Cellular functional assay D2S (h) agonism; format: cell-based; settings: HEK293; compound 1×10^−6 M; control 3 μM dopamine; read-out: D2-ag [%]
T1 construct: expressed in transfected cells; host or cells: HEK-293 cells
T1 sequence (P14416 1-414 isoform P14416-2): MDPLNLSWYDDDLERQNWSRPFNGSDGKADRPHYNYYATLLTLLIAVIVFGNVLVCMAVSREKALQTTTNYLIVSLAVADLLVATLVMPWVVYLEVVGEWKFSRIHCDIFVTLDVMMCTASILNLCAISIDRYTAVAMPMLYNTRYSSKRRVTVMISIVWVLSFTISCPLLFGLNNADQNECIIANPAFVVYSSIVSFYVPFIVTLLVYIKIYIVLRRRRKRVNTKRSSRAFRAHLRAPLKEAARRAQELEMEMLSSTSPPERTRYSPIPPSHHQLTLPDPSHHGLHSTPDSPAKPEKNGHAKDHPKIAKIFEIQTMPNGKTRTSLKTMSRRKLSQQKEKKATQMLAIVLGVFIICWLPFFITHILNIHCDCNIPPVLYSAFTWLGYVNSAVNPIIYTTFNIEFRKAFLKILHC
Method: (§3) The results are expressed as a percent of control specific agonist response ((measured specific response/control specific agonist response)×100) obtained in the presence of tested compound.
(§4) The EC50 values (concentration producing a half-maximal specific response) and IC50 values (concentration causing a half-maximal inhibition of the control specific agonist response) were determined by non-linear regression analysis of the concentration-response curves generated with mean replicate values using Hill equation curve fitting (Y=D+[(A−D)/(1+(C/C50)nH)], where Y=specific response, D=minimum specific response, A=maximum specific response, C=compound concentration, and C50=EC50 or IC50, and nH=slope factor).
(§5) For the antagonists, the apparent dissociation constants (Kb) were calculated using the modified Cheng Prusoff equation (Kb=IC50/(1+(A/EC50A)), where A=concentration of reference agonist in the assay, and EC50A=EC50 value of the reference agonist).

[3] = biological target: T1, D2S (h), human recombinant (HEK-293 cells); experiment: Cellular functional assay D2S (h) antagonism; format: cell-based; settings: HEK293; compound 1×10^−6 M; stimulus dopamine 30 nM; read-out: D2-antag [%]
Method: as §3, §4, §5

[4] = biological target: T2, 5-HT6 (h), human recombinant (CHO cells) (Homo sapiens, UniProt P50406); experiment: Cellular functional assay 5-HT6 (h) antagonism; format: cell-based; settings: compound 1×10^−6 M, stimulus serotonin 100 nM, read-out: 5-HT6-antag [%]
T2 construct: expressed in transfected cells; host or cells: CHO cells
T2 sequence (P50406 whole entry): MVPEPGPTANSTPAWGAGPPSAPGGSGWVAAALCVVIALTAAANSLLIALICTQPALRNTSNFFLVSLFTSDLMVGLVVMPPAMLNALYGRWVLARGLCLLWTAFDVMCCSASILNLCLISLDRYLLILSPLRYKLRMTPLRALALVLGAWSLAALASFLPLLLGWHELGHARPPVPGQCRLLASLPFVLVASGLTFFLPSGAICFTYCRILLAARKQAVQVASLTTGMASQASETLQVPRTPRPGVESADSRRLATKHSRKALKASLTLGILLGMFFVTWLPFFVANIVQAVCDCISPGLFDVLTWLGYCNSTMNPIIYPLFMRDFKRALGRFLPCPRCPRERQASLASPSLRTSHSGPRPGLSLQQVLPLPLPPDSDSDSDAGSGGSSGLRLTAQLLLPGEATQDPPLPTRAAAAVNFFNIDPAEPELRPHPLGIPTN
Method: as §3, §4, §5

[5] = biological target: T2, 5-HT6 (h), human recombinant (CHO cells); experiment: Cellular functional assay 5-HT6 (h) agonism; format: cell-based; settings: compound 1×10^−6 M, control 10 μM serotonin, read-out: 5-HT6-ag [%]
Method: as §3, §4, §5

[6] = biological target: T3, 5-HT6 receptor, human recombinant (Homo sapiens, UniProt P50406); experiment: Binding assay, 5-HT6 receptor ([3H]LSD); settings: compound 1×10^−6 M
T3 construct: purchased PerkinElmer
T3 sequence (P50406 whole entry): as above
Method: (§6) Moreover, ability of the compounds of the invention to block potassium channel hERG was tested.
as §1
as §2, with “factor).” for “factor). This analysis was performed using a software developed at Cerep (Hill software) and validated by comparison with data generated by the commercial software SigmaPlot® 4.0 for Windows® (©1997 by SPSS Inc.).”

[7] = biological target: T4, 5-HT1A receptor (rat hippocampus) (Rattus norvegicus, UniProt P19327); experiment: Binding assay, 5-HT1A receptor ([3H]8-OH-DPAT); settings: compound 1×10^−6 M
T4 construct: hippocampus; from tissue; host or cells: rat hippocampus
T4 sequence (P19327 1-422): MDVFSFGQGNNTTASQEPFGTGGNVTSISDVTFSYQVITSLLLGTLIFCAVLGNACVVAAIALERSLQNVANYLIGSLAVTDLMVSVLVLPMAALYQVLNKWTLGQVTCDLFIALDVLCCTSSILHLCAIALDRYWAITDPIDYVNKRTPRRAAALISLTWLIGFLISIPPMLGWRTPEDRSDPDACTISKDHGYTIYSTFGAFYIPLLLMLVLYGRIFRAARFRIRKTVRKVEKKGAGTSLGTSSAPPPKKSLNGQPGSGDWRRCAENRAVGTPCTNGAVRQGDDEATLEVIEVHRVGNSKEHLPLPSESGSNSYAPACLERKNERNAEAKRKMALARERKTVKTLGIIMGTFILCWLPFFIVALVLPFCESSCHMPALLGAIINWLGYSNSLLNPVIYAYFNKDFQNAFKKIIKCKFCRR
Method: as §6, §1
as §2, with “factor).” for “factor). This analysis was performed using a software developed at Cerep (Hill software) and validated by comparison with data generated by the commercial software SigmaPlot® 4.0 for Windows® (©1997 by SPSS Inc.).”

[8] = biological target: T5, 5-HT7 receptor, human recombinant (Homo sapiens, UniProt P34969); experiment: Binding assay, 5-HT7 receptor ([3H]LSD); settings: compound 1×10^−6 M
T5 construct: purchased PerkinElmer
T5 sequence (P34969 whole entry): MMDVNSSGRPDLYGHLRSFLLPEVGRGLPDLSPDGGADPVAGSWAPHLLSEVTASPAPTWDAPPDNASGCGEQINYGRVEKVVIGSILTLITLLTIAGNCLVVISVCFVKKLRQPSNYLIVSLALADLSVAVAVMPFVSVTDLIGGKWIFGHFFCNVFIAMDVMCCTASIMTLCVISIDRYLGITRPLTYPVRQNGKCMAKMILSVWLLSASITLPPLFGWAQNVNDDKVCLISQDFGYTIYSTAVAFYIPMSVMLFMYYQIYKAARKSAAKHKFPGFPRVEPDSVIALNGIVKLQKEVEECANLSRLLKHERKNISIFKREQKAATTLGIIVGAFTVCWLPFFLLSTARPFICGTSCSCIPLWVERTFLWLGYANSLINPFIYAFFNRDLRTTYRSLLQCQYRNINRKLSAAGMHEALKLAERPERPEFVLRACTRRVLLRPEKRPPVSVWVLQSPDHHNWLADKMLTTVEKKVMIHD
Method: as §6, §1
as §2, with “factor).” for “factor). This analysis was performed using a software developed at Cerep (Hill software) and validated by comparison with data generated by the commercial software SigmaPlot® 4.0 for Windows® (©1997 by SPSS Inc.).”

[9] = biological target: T6, human recombinant D3 receptors (Homo sapiens, UniProt P35462); experiment: Binding assay, dopaminergic D3 receptor ([3H]methylspiperone); settings: compound 1×10^−6 M
T6 construct: purchased PerkinElmer
T6 sequence (P35462 whole entry): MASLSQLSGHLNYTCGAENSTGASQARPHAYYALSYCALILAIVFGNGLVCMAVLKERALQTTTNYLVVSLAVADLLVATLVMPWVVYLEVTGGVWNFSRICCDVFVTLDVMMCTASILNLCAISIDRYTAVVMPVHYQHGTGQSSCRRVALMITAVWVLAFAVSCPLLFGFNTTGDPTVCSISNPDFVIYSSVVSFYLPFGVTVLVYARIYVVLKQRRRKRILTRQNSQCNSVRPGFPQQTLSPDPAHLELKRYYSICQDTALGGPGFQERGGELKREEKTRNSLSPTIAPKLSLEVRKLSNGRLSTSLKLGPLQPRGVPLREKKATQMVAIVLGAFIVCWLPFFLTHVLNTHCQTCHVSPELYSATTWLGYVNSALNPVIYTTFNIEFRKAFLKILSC
Method: as §6, §1
as §2, with “factor).” for “factor). This analysis was performed using a software developed at Cerep (Hill software) and validated by comparison with data generated by the commercial software SigmaPlot® 4.0 for Windows® (©1997 by SPSS Inc.).”

[10] = biological target: T7, D2 receptor, human recombinant (GeneBLAzer D2-Gqo5 CHO-K1 DA) (Homo sapiens, UniProt P14416); experiment: Binding assay, dopaminergic D2 receptor ([3H]methylspiperone); settings: compound 1×10^−6 M
T7 construct: purchased Invitrogen; host or cells: CHO-K1 (GeneBLAzer D2-Gqo5 CHO-K1 DA)
T7 sequence (P14416 whole entry): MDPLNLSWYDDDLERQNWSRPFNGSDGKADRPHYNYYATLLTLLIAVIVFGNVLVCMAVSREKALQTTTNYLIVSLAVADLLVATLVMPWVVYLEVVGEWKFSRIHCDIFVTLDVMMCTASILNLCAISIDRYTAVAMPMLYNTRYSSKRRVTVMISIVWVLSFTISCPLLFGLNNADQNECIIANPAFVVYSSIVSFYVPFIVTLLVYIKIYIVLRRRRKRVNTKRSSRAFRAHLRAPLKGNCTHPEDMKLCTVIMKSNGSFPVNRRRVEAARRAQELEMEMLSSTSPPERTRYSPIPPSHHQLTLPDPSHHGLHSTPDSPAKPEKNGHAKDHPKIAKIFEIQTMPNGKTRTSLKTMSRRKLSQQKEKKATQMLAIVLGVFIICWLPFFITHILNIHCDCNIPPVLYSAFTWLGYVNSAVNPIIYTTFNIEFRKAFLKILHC
Method: as §6, §1
as §2, with “factor).” for “factor). This analysis was performed using a software developed at Cerep (Hill software) and validated by comparison with data generated by the commercial software SigmaPlot® 4.0 for Windows® (©1997 by SPSS Inc.).”

[11] = biological target: T8, human recombinant SERT receptor (CHO cells) (Homo sapiens, UniProt P31645); experiment: Binding assay, serotonine transporter (SERT) ([3H]imipramine); settings: compound 1×10^−6 M
T8 construct: expressed in transfected cells; host or cells: CHO cells
T8 sequence (P31645 whole entry): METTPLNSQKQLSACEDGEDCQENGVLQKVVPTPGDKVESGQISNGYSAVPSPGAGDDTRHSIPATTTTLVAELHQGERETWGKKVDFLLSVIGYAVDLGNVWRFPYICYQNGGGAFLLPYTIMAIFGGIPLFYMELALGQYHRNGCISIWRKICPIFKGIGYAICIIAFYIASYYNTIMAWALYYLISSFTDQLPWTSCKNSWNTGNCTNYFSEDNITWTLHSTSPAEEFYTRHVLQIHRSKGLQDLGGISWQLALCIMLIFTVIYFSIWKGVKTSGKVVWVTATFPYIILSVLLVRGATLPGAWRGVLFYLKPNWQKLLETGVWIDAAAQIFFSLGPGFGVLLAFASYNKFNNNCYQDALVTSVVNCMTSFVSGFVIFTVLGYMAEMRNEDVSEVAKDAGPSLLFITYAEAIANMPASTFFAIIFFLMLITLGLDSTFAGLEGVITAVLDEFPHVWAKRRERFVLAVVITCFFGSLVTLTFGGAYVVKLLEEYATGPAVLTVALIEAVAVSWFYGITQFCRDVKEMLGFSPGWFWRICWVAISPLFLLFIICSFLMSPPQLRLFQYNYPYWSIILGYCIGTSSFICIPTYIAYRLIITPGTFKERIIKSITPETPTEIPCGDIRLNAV
Method: as §6, §1
as §2, with “factor).” for “factor). This analysis was performed using a software developed at Cerep (Hill software) and validated by comparison with data generated by the commercial software SigmaPlot® 4.0 for Windows® (©1997 by SPSS Inc.).”

[12] = biological target: 5-HT2A receptor, human recombinant (Homo sapiens, UniProt P28223); experiment: Binding assay, 5-HT2A receptor ([3H]ketanserin); design: purchased PerkinElmer; settings: compound 1×10^−6 M
Chain of 5-HT2A receptor, human recombinant (P28223 whole entry): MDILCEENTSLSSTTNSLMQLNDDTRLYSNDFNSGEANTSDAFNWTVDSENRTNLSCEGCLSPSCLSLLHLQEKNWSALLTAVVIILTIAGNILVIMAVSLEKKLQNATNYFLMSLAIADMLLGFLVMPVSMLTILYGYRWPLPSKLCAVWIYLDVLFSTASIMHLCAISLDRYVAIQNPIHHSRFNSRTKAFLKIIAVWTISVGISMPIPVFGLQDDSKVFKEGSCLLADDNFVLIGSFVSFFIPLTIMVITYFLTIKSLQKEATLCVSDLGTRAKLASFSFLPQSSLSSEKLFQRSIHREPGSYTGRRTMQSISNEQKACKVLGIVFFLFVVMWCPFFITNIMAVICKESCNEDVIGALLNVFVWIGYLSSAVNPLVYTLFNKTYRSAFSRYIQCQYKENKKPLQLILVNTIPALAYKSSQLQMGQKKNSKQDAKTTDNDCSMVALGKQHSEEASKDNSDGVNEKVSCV
Method: as §6, §1
as §2, with “factor).” for “factor). This analysis was performed using a software developed at Cerep (Hill software) and validated by comparison with data generated by the commercial software SigmaPlot® 4.0 for Windows® (©1997 by SPSS Inc.).”

## NC(=O)c1ccccc1OCCCN1CCN(c2cccc3c2ccn3Cc2cccc(F)c2)CC1 [Compound 64, 2-[3-[4-[1-[(3-Fluorophenyl)methyl]indol-4-yl]piperazin-1-yl]propoxy]-benzamide]
[1]
  α1 [%] affinity test result: 57%

## NC(=O)c1ccccc1OCCCN1CCN(c2cccc3c2ccn3Cc2ccc(F)cc2)CC1 [Compound 66, 2-[3-[4-[1-[(4-Fluorophenyl)methyl]indol-4-yl]piperazin-1-yl]propoxy]-benzamide]
[1]
  α1 [%] affinity test result: 42%

## O=C1CCc2ccc(OCCCCN3CCN(c4cccc5c4ccn5Cc4ccccc4F)CC3)cc2N1 [Compound 61, 7-[4-[4-[1-[(2-Fluorophenyl)methyl]indol-4-yl]piperazin-1-yl]butoxy]-3,4-dihydro-1H-quinolin-2-one]
[1]
  α1 [%] affinity test result: 13%

## NC(=O)c1ccccc1OCCCN1CCN(c2cccc3c2ccn3Cc2cccc(Cl)c2)CC1 [Compound 68, 2-[3-[4-[1-[(3-Chlorophenyl)methyl]indol-4-yl]piperazin-1-yl]propoxy]-benzamide]
[1]
  α1 [%] affinity test result: 56%

## O=S(=O)(c1ccccc1)n1ccc2c(N3CCN(CCCOc4ccc5ccoc5c4)CC3)cccc21 [Compound 25, 4-(4-(3-(Benzofuran-6-yloxy)propyl)piperazin-1-yl)-1-(phenylsulphonyl)-1H-indole]
[1]
  α1 [%] affinity test result: 25%
[2]
  activation at 1 µM: 30%
[3]
  inhibition at 1 µM: 75%
[4]
  inhibition at 1 µM: 98%
[5]
  activation at 1 µM: -4%

## O=S(=O)(c1ccccc1)n1ccc2c(N3CCN(CCCCOc4ccccc4)CC3)cccc21 [Compound 69, 1(Benzenesulfonyl)-4-[4-(4-phenoxybutyl)piperazin-1-yl]indole]
[1]
  α1 [%] affinity test result: 49%

## NC(=O)c1ccccc1OCCCN1CCN(c2cccc3c2ccn3Cc2ccccc2)CC1 [Compound 60, 2-[3-[4-(1-Benzylindol-4-yl)piperazin-1-yl]propoxy]benzamide]
[1]
  α1 [%] affinity test result: 56%

## O=S(=O)(c1ccccc1)n1ccc2c(N3CCN(CCCOc4ccccc4)CC3)cccc21 [Compound 12, 4-(4-(3-Phenoxypropyl)piperazin-1-yl)-1-(phenylsulphonyl)-1H-indole]
[1]
  α1 [%] affinity test result: 83%
[2]
  activation at 1 µM: 11%
[3]
  inhibition at 1 µM: 73%
[4]
  inhibition at 1 µM: 73%
[5]
  activation at 1 µM: -2%

## NC(=O)c1ccccc1OCCCN1CCN(c2cccc3c2ccn3Cc2ccccc2F)CC1 [Compound 62, 2-[3-[4-[1-[(2-Fluorophenyl)methyl]indol-4-yl]piperazin-1-yl]propoxy]-benzamide]
[1]
  α1 [%] affinity test result: 50%

## O=S(=O)(c1ccccc1)n1ccc2c(N3CCN(CCCCOc4ccc(F)cc4)CC3)cccc21 [Compound 70, 1-(Benzenesulfonyl)-4-[4-[4-(4-fluorophenoxy)butyl]piperazin-1-yl]-indole]
[1]
  α1 [%] affinity test result: 54%

## O=C1CCc2ccc(OCCCCN3CCN(c4cccc5c4ccn5Cc4ccc(F)cc4)CC3)cc2N1 [Compound 65, 7-[4-[4-[1-[(4-Fluorophenyl)methyl]indol-4-yl]piperazin-1-yl]butoxy]-3,4-dihydro-1H-quinolin-2-one]
[1]
  α1 [%] affinity test result: 59%

## CC(C)Oc1ccccc1OCCCN1CCN(c2cccc3c2ccn3S(=O)(=O)c2ccccc2)CC1 [Compound 21, 4-(4-(3-(2-(1-Methylethoxy)phenoxy)propyl)piperazin-1-0)-1-(phenylsulphonyl)-1H-indole]
[6]
  5-HT6 [%] binding assay result: 97%
[7]
  5-HT1A [%] binding assay result: 91%
[1]
  α1 [%] affinity test result: 83%
[8]
  5-HT7 [%] binding assay result: 78%
[9]
  D3 [%] binding assay result: 86%
[10]
  D2 [%] binding assay result: 90%
[11]
  SERT [%] affinity test result: 13%
[12]
  5-HT2A [%] binding assay result: 80%

## CC(C)Oc1ccccc1OCCCCN1CCN(c2cccc3c2ccn3S(=O)(=O)c2ccccc2)CC1 [Compound 71, 1-(Benzenesulfonyl)-4-[4-[4-(2-isopropoxyphenoxy)butyl]-piperazin-1-yl]indole]
[1]
  α1 [%] affinity test result: 40%

## O=S(=O)(c1ccccc1)n1ccc2c(N3CCN(CCCOc4ccc(F)cc4)CC3)cccc21 [Compound 15, 4-(4-(3-(4-Fluorophenoxy)propyl)piperazin-1-yl)-1-(phenylsulphonyl)-1H-indole]
[1]
  α1 [%] affinity test result: 93%
[2]
  activation at 1 µM: 11%
[3]
  inhibition at 1 µM: 68%
[4]
  inhibition at 1 µM: 88%
[5]
  activation at 1 µM: 0%
